Experimental data published in ChEMBL document CHEMBL4507283, “Data for DCP probe BI-1935” (2021).
pKi: −log10 of the molar value.

Tests used:
[1] = molecular target: Protein-tyrosine kinase 2-beta (Homo sapiens) (UniProt Q14289); conditions: Compound concentration 1000.0 nM
[2] = molecular target: Inhibitor of nuclear factor kappa-B kinase subunit epsilon (Homo sapiens) (UniProt Q14164); conditions: Compound concentration 1000.0 nM
[3] = molecular target: Histamine H2 receptor (Homo sapiens) (UniProt P25021); assay: H2/H Eurofins-Panlabs selectivity data (BI); conditions: Compound concentration 10.0 uM
Chain of Histamine H2 receptor (Homo sapiens) (P25021 whole entry): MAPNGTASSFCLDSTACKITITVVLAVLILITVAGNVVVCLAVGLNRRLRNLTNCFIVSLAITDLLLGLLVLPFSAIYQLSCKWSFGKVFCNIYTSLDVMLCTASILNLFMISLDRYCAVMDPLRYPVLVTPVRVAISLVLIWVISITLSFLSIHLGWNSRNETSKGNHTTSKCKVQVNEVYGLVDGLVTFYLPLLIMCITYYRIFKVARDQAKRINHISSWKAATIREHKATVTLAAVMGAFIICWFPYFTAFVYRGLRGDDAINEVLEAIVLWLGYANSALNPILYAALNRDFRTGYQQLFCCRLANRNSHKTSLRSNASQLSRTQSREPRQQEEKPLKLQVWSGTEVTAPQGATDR

[4] = molecular target: Serine/threonine-protein kinase D1 (Homo sapiens) (UniProt Q15139); conditions: Compound concentration 1000.0 nM
[5] = molecular target: Protein kinase C epsilon type (Homo sapiens) (UniProt Q02156); conditions: Compound concentration 1000.0 nM
Chain of Protein kinase C epsilon type (Homo sapiens) (Q02156 whole entry): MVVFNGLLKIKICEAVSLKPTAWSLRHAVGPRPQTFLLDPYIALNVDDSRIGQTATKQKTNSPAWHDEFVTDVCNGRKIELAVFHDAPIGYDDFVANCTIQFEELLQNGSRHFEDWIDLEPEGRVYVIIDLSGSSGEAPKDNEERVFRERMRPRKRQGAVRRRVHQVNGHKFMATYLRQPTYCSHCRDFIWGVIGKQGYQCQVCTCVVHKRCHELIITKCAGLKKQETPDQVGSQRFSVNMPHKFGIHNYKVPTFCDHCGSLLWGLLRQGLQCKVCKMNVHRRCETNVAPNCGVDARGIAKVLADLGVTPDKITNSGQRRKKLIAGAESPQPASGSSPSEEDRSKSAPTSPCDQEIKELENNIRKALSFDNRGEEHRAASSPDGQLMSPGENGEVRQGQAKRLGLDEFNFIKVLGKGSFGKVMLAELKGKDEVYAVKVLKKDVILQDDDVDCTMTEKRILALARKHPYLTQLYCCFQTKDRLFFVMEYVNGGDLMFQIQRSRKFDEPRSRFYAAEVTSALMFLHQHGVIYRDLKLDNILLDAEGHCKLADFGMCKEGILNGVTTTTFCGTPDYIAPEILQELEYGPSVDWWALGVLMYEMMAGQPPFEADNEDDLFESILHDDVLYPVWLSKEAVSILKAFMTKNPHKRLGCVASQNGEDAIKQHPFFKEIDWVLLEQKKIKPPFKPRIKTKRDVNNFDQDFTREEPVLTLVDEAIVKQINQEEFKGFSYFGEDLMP

[6] = molecular target: Thromboxane A2 receptor (Homo sapiens) (UniProt P21731); assay: PROST_A2TP Eurofins-Panlabs selectivity data (BI); conditions: Compound concentration 10.0 uM
[7] = molecular target: D(3) dopamine receptor (Homo sapiens) (UniProt P35462); assay: D3/HU Eurofins-Panlabs selectivity data (BI); conditions: Compound concentration 10.0 uM
[8] = molecular target: Death-associated protein kinase 1 (Homo sapiens) (UniProt P53355); conditions: Compound concentration 1000.0 nM
[9] = molecular target: Bone morphogenetic protein receptor type-1A (Homo sapiens) (UniProt P36894); conditions: Compound concentration 1000.0 nM
[10] = molecular target: Protein kinase C theta type (Homo sapiens) (UniProt Q04759); conditions: Compound concentration 1000.0 nM
[11] = molecular target: Dual specificity mitogen-activated protein kinase kinase 5 (Homo sapiens) (UniProt Q13163); conditions: Compound concentration 1000.0 nM
[12] = molecular target: Tyrosine-protein kinase ZAP-70 (Homo sapiens) (UniProt P43403); conditions: Compound concentration 1000.0 nM
[13] = molecular target: Activated CDC42 kinase 1 (Homo sapiens) (UniProt Q07912); conditions: Compound concentration 1000.0 nM
Chain of Activated CDC42 kinase 1 (Homo sapiens) (Q07912 whole entry, looked up): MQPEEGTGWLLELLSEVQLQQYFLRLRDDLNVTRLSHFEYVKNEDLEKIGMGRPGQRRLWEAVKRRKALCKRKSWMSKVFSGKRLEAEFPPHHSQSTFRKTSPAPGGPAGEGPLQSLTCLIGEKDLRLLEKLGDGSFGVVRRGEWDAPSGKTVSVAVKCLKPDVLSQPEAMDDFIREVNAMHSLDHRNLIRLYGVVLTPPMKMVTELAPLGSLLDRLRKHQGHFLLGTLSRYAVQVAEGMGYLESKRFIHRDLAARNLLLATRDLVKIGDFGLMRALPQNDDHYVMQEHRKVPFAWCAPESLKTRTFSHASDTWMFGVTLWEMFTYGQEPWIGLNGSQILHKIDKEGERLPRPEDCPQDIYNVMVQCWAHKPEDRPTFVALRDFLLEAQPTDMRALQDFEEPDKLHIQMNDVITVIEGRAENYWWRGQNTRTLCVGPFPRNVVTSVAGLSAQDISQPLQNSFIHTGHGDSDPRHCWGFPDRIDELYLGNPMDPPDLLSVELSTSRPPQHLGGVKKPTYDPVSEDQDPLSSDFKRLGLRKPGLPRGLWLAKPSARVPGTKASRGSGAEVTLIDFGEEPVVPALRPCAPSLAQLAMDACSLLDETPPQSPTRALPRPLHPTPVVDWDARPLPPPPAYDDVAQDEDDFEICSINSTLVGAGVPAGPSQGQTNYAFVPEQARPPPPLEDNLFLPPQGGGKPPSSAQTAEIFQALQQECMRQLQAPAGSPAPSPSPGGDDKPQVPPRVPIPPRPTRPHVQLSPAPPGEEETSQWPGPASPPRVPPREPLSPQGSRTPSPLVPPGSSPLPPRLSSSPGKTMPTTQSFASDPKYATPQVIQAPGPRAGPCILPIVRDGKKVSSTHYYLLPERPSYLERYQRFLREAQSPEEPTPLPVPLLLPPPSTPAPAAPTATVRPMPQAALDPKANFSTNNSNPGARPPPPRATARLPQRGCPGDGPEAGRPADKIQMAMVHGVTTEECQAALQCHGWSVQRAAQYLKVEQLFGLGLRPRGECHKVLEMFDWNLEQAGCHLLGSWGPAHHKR

[14] = molecular target: Myosin-IIIb (Homo sapiens) (UniProt Q8WXR4); conditions: Compound concentration 1000.0 nM
[15] = molecular target: RAC-beta serine/threonine-protein kinase (Homo sapiens) (UniProt P31751); conditions: Compound concentration 1000.0 nM
[16] = molecular target: B2 bradykinin receptor (Homo sapiens) (UniProt P30411); assay: B2/HU Eurofins-Panlabs selectivity data (BI); conditions: Compound concentration 10.0 uM
[17] = test system: Epidermal growth factor receptor (Homo sapiens), P00533 [T790M]; conditions: Compound concentration 1000.0 nM
[18] = molecular target: GABA-A receptor; anion channel (Rattus norvegicus) (UniProt O09028+P15431+P18506+P18508+P19969+P20236+P23574+P23576+P28471+P28473+P30191+P62813+P63079+P63138+Q91ZM7+Q9ES14); conditions: Compound concentration 10.0 uM
[19] = molecular target: MAP kinase-activated protein kinase 2 (Homo sapiens) (UniProt P49137); conditions: Compound concentration 1000.0 nM
[20] = test system: Epidermal growth factor receptor (Homo sapiens), P00533 [UNDEFINED MUTATION]; conditions: Compound concentration 1000.0 nM
[21] = molecular target: Dual specificity protein kinase CLK3 (Homo sapiens) (UniProt P49761); conditions: Compound concentration 1000.0 nM
Chain of Dual specificity protein kinase CLK3 (Homo sapiens) (P49761 whole entry, looked up): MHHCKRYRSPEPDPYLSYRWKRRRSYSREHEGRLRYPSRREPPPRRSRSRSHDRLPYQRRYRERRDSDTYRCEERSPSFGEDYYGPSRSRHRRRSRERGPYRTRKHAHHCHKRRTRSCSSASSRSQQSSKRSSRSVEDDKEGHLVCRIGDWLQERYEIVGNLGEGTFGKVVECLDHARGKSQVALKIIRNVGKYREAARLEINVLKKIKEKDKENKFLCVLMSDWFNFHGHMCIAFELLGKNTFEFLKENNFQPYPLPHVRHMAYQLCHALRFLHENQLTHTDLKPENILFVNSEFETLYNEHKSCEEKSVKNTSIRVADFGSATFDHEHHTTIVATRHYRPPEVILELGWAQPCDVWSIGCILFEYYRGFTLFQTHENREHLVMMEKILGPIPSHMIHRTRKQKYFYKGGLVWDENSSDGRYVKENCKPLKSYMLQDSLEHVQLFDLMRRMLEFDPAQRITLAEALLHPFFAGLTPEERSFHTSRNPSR

[22] = molecular target: Homeodomain-interacting protein kinase 2 (Homo sapiens) (UniProt Q9H2X6); conditions: Compound concentration 1000.0 nM
[23] = molecular target: Serine/threonine-protein kinase PknB (Mycobacterium tuberculosis) (UniProt P9WI81); conditions: Compound concentration 1000.0 nM
Chain of Serine/threonine-protein kinase PknB (Mycobacterium tuberculosis) (P9WI81 whole entry): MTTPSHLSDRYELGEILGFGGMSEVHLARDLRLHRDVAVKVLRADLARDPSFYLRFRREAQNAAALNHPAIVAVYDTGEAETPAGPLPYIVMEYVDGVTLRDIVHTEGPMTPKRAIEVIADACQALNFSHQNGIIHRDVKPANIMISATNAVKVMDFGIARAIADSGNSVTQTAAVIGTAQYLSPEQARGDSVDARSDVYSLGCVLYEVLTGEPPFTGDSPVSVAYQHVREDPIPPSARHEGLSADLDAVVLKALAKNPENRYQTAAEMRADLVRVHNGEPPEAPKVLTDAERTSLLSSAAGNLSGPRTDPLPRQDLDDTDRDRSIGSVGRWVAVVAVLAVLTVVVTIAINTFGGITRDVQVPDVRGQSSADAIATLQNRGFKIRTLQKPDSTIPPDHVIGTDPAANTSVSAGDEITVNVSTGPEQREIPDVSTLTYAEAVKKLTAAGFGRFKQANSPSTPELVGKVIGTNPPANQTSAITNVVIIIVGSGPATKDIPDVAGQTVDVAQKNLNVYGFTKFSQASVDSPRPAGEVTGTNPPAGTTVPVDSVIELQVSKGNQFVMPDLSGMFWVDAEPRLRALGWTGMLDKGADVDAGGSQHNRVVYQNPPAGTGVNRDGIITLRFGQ

[24] = molecular target: Proto-oncogene tyrosine-protein kinase ROS (Homo sapiens) (UniProt P08922); conditions: Compound concentration 1000.0 nM
[25] = molecular target: Phosphatidylinositol 4-kinase beta (Homo sapiens) (UniProt Q9UBF8); conditions: Compound concentration 1000.0 nM
[26] = molecular target: Serine/threonine-protein kinase ULK2 (Homo sapiens) (UniProt Q8IYT8); conditions: Compound concentration 1000.0 nM
[27] = molecular target: MAP/microtubule affinity-regulating kinase 3 (Homo sapiens) (UniProt P27448); conditions: Compound concentration 1000.0 nM
[28] = molecular target: Phospholipase A2 (Sus scrofa) (UniProt A0A8D1VEY7); assay: PLA2 Eurofins-Panlabs selectivity data (BI); conditions: Compound concentration 10.0 uM
Chain of Phospholipase A2 (Sus scrofa) (A0A8D1VEY7 as listed by the source): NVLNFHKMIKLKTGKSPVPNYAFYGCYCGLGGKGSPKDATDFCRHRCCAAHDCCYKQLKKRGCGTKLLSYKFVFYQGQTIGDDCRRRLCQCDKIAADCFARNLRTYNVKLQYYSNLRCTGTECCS

[29] = molecular target: Serine/threonine-protein kinase 36 (Homo sapiens) (UniProt Q9NRP7); conditions: Compound concentration 1000.0 nM
[30] = molecular target: Delta-type opioid receptor (Homo sapiens) (UniProt P41143); conditions: Compound concentration 10.0 uM
Chain of Delta-type opioid receptor (Homo sapiens) (P41143 whole entry): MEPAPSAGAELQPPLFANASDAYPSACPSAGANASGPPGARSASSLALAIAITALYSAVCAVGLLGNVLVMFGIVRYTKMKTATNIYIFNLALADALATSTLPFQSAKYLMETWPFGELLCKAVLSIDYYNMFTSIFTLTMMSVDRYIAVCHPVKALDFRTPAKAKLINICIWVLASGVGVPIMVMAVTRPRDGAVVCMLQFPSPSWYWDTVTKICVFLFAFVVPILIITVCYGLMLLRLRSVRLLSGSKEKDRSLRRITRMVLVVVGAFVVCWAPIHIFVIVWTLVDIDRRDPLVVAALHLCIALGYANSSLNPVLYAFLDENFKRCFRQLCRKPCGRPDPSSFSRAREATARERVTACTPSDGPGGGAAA

[31] = molecular target: Tyrosine-protein kinase Lck (Homo sapiens) (UniProt P06239); conditions: Compound concentration 1000.0 nM
[32] = molecular target: Cyclin-dependent kinase 11B (Homo sapiens) (UniProt P21127); conditions: Compound concentration 1000.0 nM
[33] = molecular target: Opioid receptor (Rattus norvegicus) (UniProt P33533+P34975+P33535); assay: OPIAT/NS Eurofins-Panlabs selectivity data (BI); format: protein assay; conditions: Compound concentration 10.0 uM
[34] = molecular target: Ephrin type-A receptor 5 (Homo sapiens) (UniProt P54756); conditions: Compound concentration 1000.0 nM
[35] = molecular target: Wee1-like protein kinase (Homo sapiens) (UniProt P30291); conditions: Compound concentration 1000.0 nM
[36] = test system: Tyrosine-protein kinase ABL1 (Homo sapiens), P00519 [T315I]; conditions: Compound concentration 1000.0 nM
[37] = molecular target: Mitogen-activated protein kinase kinase kinase kinase 1 (Homo sapiens) (UniProt Q92918); conditions: Compound concentration 1000.0 nM
[38] = molecular target: Sodium-dependent dopamine transporter (Homo sapiens, UniProt Q01959); assay: GPCRScan assay: inhibition of DAT; set-up: radioligand conc. used [nm] 3.6 – 16.0, parental cells stable HEK
Chain of Sodium-dependent dopamine transporter (Q01959 whole entry): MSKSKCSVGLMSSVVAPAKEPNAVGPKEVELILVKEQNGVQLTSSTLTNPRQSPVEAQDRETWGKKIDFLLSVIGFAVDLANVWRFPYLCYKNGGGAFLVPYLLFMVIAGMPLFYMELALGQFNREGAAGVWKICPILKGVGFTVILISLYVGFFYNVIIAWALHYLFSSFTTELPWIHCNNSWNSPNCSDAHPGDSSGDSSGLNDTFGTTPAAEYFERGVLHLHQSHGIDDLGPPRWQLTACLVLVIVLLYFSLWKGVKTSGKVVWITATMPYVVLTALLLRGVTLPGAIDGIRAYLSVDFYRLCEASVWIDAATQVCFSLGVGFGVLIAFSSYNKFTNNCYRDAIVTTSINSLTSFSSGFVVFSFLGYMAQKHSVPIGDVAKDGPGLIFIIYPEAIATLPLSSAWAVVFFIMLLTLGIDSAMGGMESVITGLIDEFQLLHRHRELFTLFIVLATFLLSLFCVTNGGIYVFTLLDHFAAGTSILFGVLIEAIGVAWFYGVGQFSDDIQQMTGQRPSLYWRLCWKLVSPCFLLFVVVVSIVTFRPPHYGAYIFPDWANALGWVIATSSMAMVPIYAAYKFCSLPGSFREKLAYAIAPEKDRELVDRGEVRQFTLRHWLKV

[39] = molecular target: Histamine H2 receptor (Homo sapiens) (UniProt P25021); conditions: Compound concentration 10.0 uM
[40] = molecular target: Myotonin-protein kinase (Homo sapiens) (UniProt Q09013); conditions: Compound concentration 1000.0 nM
Chain of Myotonin-protein kinase (Homo sapiens) (Q09013 whole entry): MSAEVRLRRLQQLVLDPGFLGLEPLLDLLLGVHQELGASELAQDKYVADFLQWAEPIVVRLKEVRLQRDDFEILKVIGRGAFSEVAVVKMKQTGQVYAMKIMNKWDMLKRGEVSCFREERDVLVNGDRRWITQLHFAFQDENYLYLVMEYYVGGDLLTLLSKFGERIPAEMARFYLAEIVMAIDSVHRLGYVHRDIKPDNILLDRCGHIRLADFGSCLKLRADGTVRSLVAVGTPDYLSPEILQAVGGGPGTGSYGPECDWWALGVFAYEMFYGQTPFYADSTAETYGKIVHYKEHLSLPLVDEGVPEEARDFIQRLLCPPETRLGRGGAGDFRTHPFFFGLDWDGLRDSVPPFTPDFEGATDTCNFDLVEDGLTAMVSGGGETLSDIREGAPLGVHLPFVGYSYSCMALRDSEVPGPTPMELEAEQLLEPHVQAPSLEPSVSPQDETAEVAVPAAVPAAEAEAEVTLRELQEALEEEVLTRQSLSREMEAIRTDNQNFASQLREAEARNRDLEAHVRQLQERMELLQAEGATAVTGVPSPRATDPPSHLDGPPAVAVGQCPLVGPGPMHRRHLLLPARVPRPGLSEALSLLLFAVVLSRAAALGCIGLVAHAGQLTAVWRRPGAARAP

[41] = molecular target: Serine/threonine-protein kinase PAK 5 (Homo sapiens) (UniProt Q9P286); conditions: Compound concentration 1000.0 nM
[42] = molecular target: Phosphatidylinositol 3-kinase catalytic subunit type 3 (Homo sapiens) (UniProt Q8NEB9); conditions: Compound concentration 1000.0 nM
[43] = molecular target: Tyrosine-protein kinase HCK (Homo sapiens) (UniProt P08631); conditions: Compound concentration 1000.0 nM
[44] = test system: Epidermal growth factor receptor (Homo sapiens), P00533 [UNDEFINED MUTATION]; conditions: Compound concentration 1000.0 nM; remark: listed apart in the source

CCOCCn1cc(C(=O)Nc2ccc(-n3nc(-c4cccnc4)cc3C(F)(F)F)cn2)ccc1=O [BI 1935]
residual activity [1]: 100%
residual activity [2]: 79%
residual activity [3]: 106%
residual activity [4]: 100%
residual activity [5]: 100%
residual activity [6]: 98%
residual activity [7]: 110%
residual activity [8]: 100%
residual activity [9]: 70%
residual activity [10]: 73%
residual activity [11]: 84%
residual activity [12]: 67%
residual activity [13]: 81%
residual activity [14]: 96%
residual activity [15]: 100%
residual activity [16]: 100%
residual activity [17]: 100%
inhibition [18]: 34.3%
residual activity [19]: 100%
residual activity [20]: 92%
residual activity [21]: 100%
residual activity [22]: 100%
residual activity [23]: 95%
residual activity [24]: 100%
residual activity [25]: 100%
residual activity [26]: 74%
residual activity [27]: 100%
residual activity [28]: 96%
residual activity [29]: 71%
inhibition [30]: -6.39%
residual activity [31]: 100%
residual activity [32]: 100%
residual activity [33]: 99%
residual activity [34]: 100%
residual activity [35]: 100%
residual activity [36]: 96%
residual activity [37]: 81%
pKi ([38]; read-out: Ki): 5.35
Ki ([38]; read-out: pKi (converted)): 5.01 µM
inhibition [39]: -3.48%
residual activity [40]: 100%
residual activity [41]: 98%
residual activity [42]: 77%
residual activity [43]: 93%
residual activity [44]: 100%
